Tested on: HepG2
Assay: Hepatoprotective activity in human HepG2 cells assessed as inhibition of paracetamol-induced reduction in cell viability at 10 uM pretreated for 1 hr followed by paracetamol addition after 24 hrs by MTT assay relative to control
Type: functional

| Compound | inhibition at 10 µM [%] |
| --- | --- |
| CC(C)=CC[C@H]1C[C@@H](CC=C(C)C)C(C)(C)C(C(=O)c2ccccc2)C1=O (single isomer, unassigned) | 45 |
| CC(C)=CC[C@H]1C[C@]2(CC=C(C)C)C(=O)C3=C(O[C@H](C(C)(C)O)C3)[C@@](C(=O)c3ccccc3)(C2=O)C1(C)C | 19.5 |
| CC(C)=CC[C@H]1C[C@@]2(CC=C(C)C)C(=O)C3=C(O[C@H](C(C)(C)O)C3)[C@](C(=O)c3ccccc3)(C2=O)C1(C)C | 40.4 |
| COC(=O)c1cc(OC)c2c(c1-c1c(CO)cc(OC)c3c1OCO3)OCO2 [BICYCLOL] | 28.3 |
| CC(C)=CC[C@@H]1C[C@@]2(CC=C(C)C)C(=O)[C@](C(=O)c3ccccc3)(C(=O)C3=C2O[C@H](C(C)(C)O)C3)C1(C)C | 24.5 |
| CC(=O)CC1C2CC3(CC=C(C)C)C(=O)C1(C(=O)c1ccccc1)C(=O)C(CC=C(C)C)(C3=O)C2(C)C (stereo not given) | 13.9 |
| CC[C@H](C)C(=O)[C@]12C(=O)[C@](C)(C[C@H](CC=C(C)C)[C@@]1(C)CCC=C(C)C)C(=O)C1=C2O[C@H](C(C)(C)O)C1 | 15 |
| COC(=O)[C@]1(CC=C(C)C)C[C@@H](CC=C(C)C)C(C)(C)[C@@H](C(=O)c2ccccc2)C1=O | 32.3 |
| CC(C)=CCC1=C2O[C@@H](C(C)(C)O)C[C@@]23C[C@@H](CC=C(C)C)C(C)(C)[C@@](C(=O)c2ccccc2)(C1=O)C3=O | -9.68 |
| CC(C)=CC[C@H]1C[C@@]23C[C@H](C(C)(C)O)OC2=C(C(=O)c2ccccc2)C(=O)[C@](C(=O)c2ccccc2)(C3=O)C1(C)C | 13.4 |
